System: hippocampal slices taken from young rats
Test: Plasticity induced by low-frequency stimulation (LTD) in hippocampal slices
Type: cell-based, Wistar rats
Description: After decapitation, brains of either adult ([…], for the induction of long-term potentiation) or young (2–3 weeks old, for the induction of long-term depression) Wistar rats were rapidly removed, and the hippocampus was dissected out. Transverse hippocampal slices (450 μm thickness) were immediately placed in an ice-cold cutting buffer containing 124 mM NaCl, 3 mM KCl, 1.0 mM Na2HPO4, 25 mM NaHCO3, 0.5 mM CaCl2, 5.0 mM MgSO4, 10 mM glucose, saturated with 95% O2 and 5% CO2. The slices were then maintained in an interface chamber at room temperature, and perfused at flow rate of 1–2 mL/min with artificial cerebrospinal fluid (ACSF). The composition of ACSF contained 124 mM NaCl, 4.4 mM KCl, 1.0 mM Na2HPO4, 25 mM NaHCO3, 2.0 mM or 2.5 mM CaCl2, 1.0 mM MgSO4, 10 mM glucose, gassed with 95% O2 and 5% CO2. The field Excitatory Postsynaptic Potentials (fEPSP) was evoked by test pulses through a bipolar stimulating electrode placed on the Schaffer collateral/commissural pathway, and recorded from the stratum radiatum of CA1 using a glass micropipette electrode (5–10 MΩ) filled with 2 M NaCl. The test pulse duration was 100 μsec, and test responses were elicited at 0.02 Hz. To record field potentials in the cortico-amygdala pathway, a stimulating electrode was placed in the external capsule, which contained fibers from the auditory cortex to the lateral amygdala. Bicuculine (10 μM) was present in the perfusion solution when the fEPSPs of amygdala were recorded. To increase the effectiveness of fused pyrazolyl compounds that were applied through the perfusion system, the ACSF level in the recording chamber was sufficiently high to cover the hippocampal slices but not to float them. All fused pyrazolyl compounds were perfused in ACSF.
Evoked fEPSPs were recorded and data were analyzed. The initial slope of the fEPSPs was calculated, and the data were expressed as percentages of the average of the base-line slope of the fEPSPs.
Compound 1 on plasticity induced by low-frequency stimulation (LFS): LFS (900 pulses at 1 Hz) was delivered to hippocampal slices taken from young rats ([…]) to induce long-term depression (LTD). Stimulation of hippocampal slices at 1 Hz for 3 min produced no LTD of synaptic transmission. However, this short-duration LFS induced significant LTD in the presence of Compound 1 (83.4±10.9%, n=3). […] A weaker electrical stimulation at 0.02 Hz was delivered in the presence of both nitric oxide donor nitroprusside ([…]) and Compound 1 (1.6 μM). Simultaneous perfusion of the nitric oxide donor nitroprusside (30 μM) and Compound 1 (1.6 μM) induced LTD.

SMILES: OCc1ccc(-c2nn(Cc3ccccc3)c3ccccc23)o1 [Compound 1, 1-benzyl-3-(5′-hydroxymethyl-2′-furyl)-indazole]
- plasticity with perfusion during LFS (1.6 μM perfused for 15 min during LFS (900 pulses at 1 Hz)): reversed the LTD plasticity into LTP
- potentiation of fEPSP at 0.02 Hz stimulation, substance alone (0.02 Hz stimulation, alone): produced no potentiation
- plasticity at 0.02 Hz with nitric oxide donor nitroprusside (0.02 Hz stimulation, simultaneous perfusion of nitroprusside (30 μM) and Compound 1 (1.6 μM)): induced LTD
- fEPSP (LTD) after short-duration LFS (1 Hz for 3 min, in the presence of Compound 1, young rats): 83.4±10.9%
